Results reported in the supplement of paper PMC7394473.

Tests used:
Details in all cases: 72 h
U2OS [1] = test: GR50 (concentration giving GR = 0.5)
Description: (§1)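 U2OS cells treated with full dose titrations of drug; live and dead cells counted by STACK microscopy (mKate2 nuclei, SYTOX Green) at 72 h, biological triplicates. GR and FV dose responses were fitted with 4-parameter logistic models (GR lower bound -1). GRADE (0-100) is the rescaled angle of a linear fit of FV versus GR at doses with GR >= 0, giving the percentage of the response due to cell death.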

U2OS [2] = test: fractional viability (live cells / total cells); higher = less cell death
Description: (§2)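 U2OS::Nuc-mKate2 cells seeded in 96-well plates and treated with eight- to ten-point half-log or log dilutions of drug in the presence of 50 nM SYTOX Green. Live (mKate2+) and dead (SYTOX+) cells were counted by IncuCyte STACK live-cell microscopy at 72 h; biological triplicates. GR is the normalised growth-rate inhibition value (Hafner 2016; 1 = untreated growth, <0 = population shrinking). FV is live/(live+dead) cells, not normalised.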

U2OS [3] = test: FV IC50 (concentration giving fractional viability 0.5); higher = less potent killing
Description: as §1

U2OS [4] = test: drug GRADE (percent of response due to cell death) (% (0-100)); higher = more death-driven response
Description: as §1

U2OS [5] = test: GRmin (fitted minimal GR value at highest effect) (GR value (dimensionless)); higher = less efficacious
Description: as §1

U2OS [6] = test: normalized growth rate inhibition value (GR) relative to untreated cells (GR value (dimensionless, 1 = untreated growth)); higher = less growth inhibition
Description: as §2

COCC[n+]1c2c(n(Cc3cnccn3)c1C)C(=O)c1ccccc1C2=O [YM155]
Details	FV IC50 [nM]	GR50 [µM]	GRmin	drug GRADE
U2OS [1]	–	0.00769	–	–
U2OS [3]	36.4	–	–	–
U2OS [4]	–	–	–	44.1
U2OS [5]	–	–	-0.913	–

Details	fractional viability, U2OS [2]	normalized growth rate inhibition value, U2OS [6]
3.16 pM	0.981	0.943
31.6 pM	0.981	1
0.000316 µM	0.983	1.02
0.00316 µM	0.962	0.777
0.01 µM	0.852	0.107
0.0316 µM	0.59	0.0141
0.1 µM	0.0412	-0.788
0.316 µM	0.00681	-0.79
1 µM	0.00318	-0.94
3.16 µM	0.00039	-0.882
10 µM	0	-0.967
31.6 µM	0.0019	-0.859

CCNC(=O)c1noc(-c2cc(C(C)C)c(O)cc2O)c1-c1ccc(CN2CCOCC2)cc1 [Luminespib]
Details	FV IC50 [nM]	GR50 [µM]	GRmin	drug GRADE
U2OS [1]	–	0.00564	–	–
U2OS [3]	18.6	–	–	–
U2OS [4]	–	–	–	17.6
U2OS [5]	–	–	-0.319	–

Details	fractional viability, U2OS [2]	normalized growth rate inhibition value, U2OS [6]
0.000100578 µM	0.99	0.869
0.000317827 µM	0.99	0.878
0.00100433 µM	0.989	0.876
0.00317369 µM	0.983	0.809
0.0100289 µM	0.844	-0.00384
0.0316912 µM	0.419	-0.331
0.100144 µM	0.436	-0.365
0.316456 µM	0.464	-0.239
1 µM	0.442	-0.331

COC(=O)Nc1nc2cc(C(=O)c3ccc(F)cc3)ccc2[nH]1 [Flubendazole]
Details	FV IC50 [nM]	GR50 [µM]	GRmin	drug GRADE
U2OS [1]	–	0.566	–	–
U2OS [3]	10700	–	–	–
U2OS [4]	–	–	–	61.2
U2OS [5]	–	–	-0.0291	–

Details	fractional viability, U2OS [2]	normalized growth rate inhibition value, U2OS [6]
0.01 µM	0.981	0.993
0.0316 µM	0.978	1
0.1 µM	0.971	0.892
0.316 µM	0.95	0.706
1 µM	0.766	0.286
3.16 µM	0.595	0.11
10 µM	0.516	-0.01
31.6 µM	0.468	-0.0371

C=CCn1c(=O)c2cnc(Nc3ccc(N4CCN(C)CC4)cc3)nc2n1-c1cccc(C(C)(C)O)n1 [MK1775]
Details	FV IC50 [nM]	GR50 [µM]	GRmin	drug GRADE
U2OS [1]	–	0.156	–	–
U2OS [3]	584	–	–	–
U2OS [4]	–	–	–	40.7
U2OS [5]	–	–	-0.689	–

Details	fractional viability, U2OS [2]	normalized growth rate inhibition value, U2OS [6]
0.01 µM	0.978	1.15
0.0316 µM	0.977	1.03
0.1 µM	0.948	0.664
0.316 µM	0.725	0.061
1 µM	0.294	-0.346
3.16 µM	0.125	-0.56
10 µM	0.0517	-0.681
31.6 µM	0.0225	-0.762

COc1cc2c(Oc3ccc(NC(=O)C4(C(=O)Nc5ccc(F)cc5)CC4)cc3F)ccnc2cc1OCCCN1CCOCC1 [Foretinib]
Details	FV IC50 [nM]	GR50 [µM]	GRmin	drug GRADE
U2OS [1]	–	0.138	–	–
U2OS [3]	864	–	–	–
U2OS [4]	–	–	–	39.7
U2OS [5]	–	–	-0.837	–

Details	fractional viability, U2OS [2]	normalized growth rate inhibition value, U2OS [6]
0.01 µM	0.966	0.909
0.0316 µM	0.963	0.791
0.1 µM	0.941	0.766
0.316 µM	0.689	-0.079
1 µM	0.553	-0.199
3.16 µM	0.0154	-0.831
10 µM	0	-0.93
31.6 µM	0.0267	-0.682

O=C(CCCCCCC(=O)Nc1ccccc1)NO [Vorinostat]
Details	FV IC50 [nM]	GR50 [µM]	GRmin	drug GRADE
U2OS [1]	–	0.274	–	–
U2OS [3]	765	–	–	–
U2OS [4]	–	–	–	28
U2OS [5]	–	–	-0.601	–

Details	fractional viability, U2OS [2]	normalized growth rate inhibition value, U2OS [6]
0.00100578 µM	0.992	0.932
0.00317827 µM	0.99	1.11
0.0100433 µM	0.991	0.89
0.0317369 µM	0.985	0.906
0.100289 µM	0.973	0.901
0.316912 µM	0.875	0.396
1.00144 µM	0.365	-0.201
3.16456 µM	0.16	-0.515
10 µM	0.091	-0.591

CC(=O)O[C@H]1C(=O)[C@@]2(C)[C@H]([C@H](OC(=O)c3ccccc3)[C@]3(O)C[C@H](OC(=O)[C@H](O)[C@@H](NC(=O)c4ccccc4)c4ccccc4)C(C)=C1C3(C)C)[C@]1(OC(C)=O)CO[C@@H]1C[C@@H]2O [Taxol]
Details	FV IC50 [nM]	GR50 [µM]	GRmin	drug GRADE
U2OS [1]	–	0.0907	–	–
U2OS [3]	577	–	–	–
U2OS [4]	–	–	–	75.6
U2OS [5]	–	–	0.104	–

Details	fractional viability, U2OS [2]	normalized growth rate inhibition value, U2OS [6]
0.000100578 µM	0.991	1.13
0.000317827 µM	0.991	1.2
0.00100433 µM	0.991	1.23
0.00317369 µM	0.988	1.14
0.0100289 µM	0.98	1.06
0.0316912 µM	0.897	0.813
0.100144 µM	0.759	0.461
0.316456 µM	0.591	0.211
1 µM	0.44	0.0877

COc1cc2nccc(Oc3ccc(NC(=O)Nc4cc(C)on4)c(Cl)c3)c2cc1OC [Tivozanib]
Details	FV IC50 [nM]	GR50 [µM]	GRmin	drug GRADE
U2OS [1]	–	3.87	–	–
U2OS [3]	7340	–	–	–
U2OS [4]	–	–	–	7.57
U2OS [5]	–	–	-0.878	–

Details	fractional viability, U2OS [2]	normalized growth rate inhibition value, U2OS [6]
0.01 µM	0.977	0.857
0.0316 µM	0.982	1.17
0.1 µM	0.98	1.05
0.316 µM	0.977	1.03
1 µM	0.977	0.812
3.16 µM	0.949	0.681
10 µM	0.229	-0.421
31.6 µM	0.0183	-0.823

O=C(NCCCNc1nc(Nc2cccc(NC(=O)N3CCCC3)c2)ncc1I)c1cccs1 [BX795]
Details	FV IC50 [nM]	GR50 [µM]	GRmin	drug GRADE
U2OS [1]	–	1.46	–	–
U2OS [3]	11600	–	–	–
U2OS [4]	–	–	–	34.3
U2OS [5]	–	–	-0.438	–

Details	fractional viability, U2OS [2]	normalized growth rate inhibition value, U2OS [6]
0.01 µM	0.982	0.987
0.0316 µM	0.975	1.11
0.1 µM	0.974	0.954
0.316 µM	0.971	1.01
1 µM	0.94	0.723
3.16 µM	0.716	-0.0493
10 µM	0.661	-0.146
31.6 µM	0.102	-0.574
